Assay results taken from article PMC12951562, “SH2scan: Mapping SH2 Domain-Ligand Binding Selectivity for Inhibitors and Degraders” (Journal of Medicinal Chemistry, 2026).
Read-outs that look alike come from different tables or passages of the source. Non-standard residues stand in square brackets, D forms with d. Residues, ends and D or L forms follow the SMILES beside them. *: point of attachment. pY = N[C@@H](Cc1ccc(OP(=O)(O)O)cc1)C(=O)O; Caffeoyl = O=C(/C=C/c1ccc(O)c(O)c1)*

Assays:
Assay in all cases: biochemical
Type in all cases: binding
FER = molecular target: T1, FER (Homo sapiens, UniProt P16591); conditions: for percent of DMSO vehicle control at 10 µM / remaining activity at 10 µM: read-out: percent of DMSO vehicle control; for remaining activity at 10 µM: primary screen
T1 construct: the DNA-tagged SH2 domain concentrations used in this study were <0.1 nM; made in house; host or cells: HEK293 (transient transfection; unpurified extract)

TNS2 = molecular target: T2, TNS2 (Homo sapiens, UniProt Q63HR2); conditions: for remaining activity at 10 µM: read-out: percent of DMSO vehicle control
T2 construct: made in house; host or cells: HEK293 (transient transfection), unpurified extract
T2 sequence (Q63HR2 1-1409): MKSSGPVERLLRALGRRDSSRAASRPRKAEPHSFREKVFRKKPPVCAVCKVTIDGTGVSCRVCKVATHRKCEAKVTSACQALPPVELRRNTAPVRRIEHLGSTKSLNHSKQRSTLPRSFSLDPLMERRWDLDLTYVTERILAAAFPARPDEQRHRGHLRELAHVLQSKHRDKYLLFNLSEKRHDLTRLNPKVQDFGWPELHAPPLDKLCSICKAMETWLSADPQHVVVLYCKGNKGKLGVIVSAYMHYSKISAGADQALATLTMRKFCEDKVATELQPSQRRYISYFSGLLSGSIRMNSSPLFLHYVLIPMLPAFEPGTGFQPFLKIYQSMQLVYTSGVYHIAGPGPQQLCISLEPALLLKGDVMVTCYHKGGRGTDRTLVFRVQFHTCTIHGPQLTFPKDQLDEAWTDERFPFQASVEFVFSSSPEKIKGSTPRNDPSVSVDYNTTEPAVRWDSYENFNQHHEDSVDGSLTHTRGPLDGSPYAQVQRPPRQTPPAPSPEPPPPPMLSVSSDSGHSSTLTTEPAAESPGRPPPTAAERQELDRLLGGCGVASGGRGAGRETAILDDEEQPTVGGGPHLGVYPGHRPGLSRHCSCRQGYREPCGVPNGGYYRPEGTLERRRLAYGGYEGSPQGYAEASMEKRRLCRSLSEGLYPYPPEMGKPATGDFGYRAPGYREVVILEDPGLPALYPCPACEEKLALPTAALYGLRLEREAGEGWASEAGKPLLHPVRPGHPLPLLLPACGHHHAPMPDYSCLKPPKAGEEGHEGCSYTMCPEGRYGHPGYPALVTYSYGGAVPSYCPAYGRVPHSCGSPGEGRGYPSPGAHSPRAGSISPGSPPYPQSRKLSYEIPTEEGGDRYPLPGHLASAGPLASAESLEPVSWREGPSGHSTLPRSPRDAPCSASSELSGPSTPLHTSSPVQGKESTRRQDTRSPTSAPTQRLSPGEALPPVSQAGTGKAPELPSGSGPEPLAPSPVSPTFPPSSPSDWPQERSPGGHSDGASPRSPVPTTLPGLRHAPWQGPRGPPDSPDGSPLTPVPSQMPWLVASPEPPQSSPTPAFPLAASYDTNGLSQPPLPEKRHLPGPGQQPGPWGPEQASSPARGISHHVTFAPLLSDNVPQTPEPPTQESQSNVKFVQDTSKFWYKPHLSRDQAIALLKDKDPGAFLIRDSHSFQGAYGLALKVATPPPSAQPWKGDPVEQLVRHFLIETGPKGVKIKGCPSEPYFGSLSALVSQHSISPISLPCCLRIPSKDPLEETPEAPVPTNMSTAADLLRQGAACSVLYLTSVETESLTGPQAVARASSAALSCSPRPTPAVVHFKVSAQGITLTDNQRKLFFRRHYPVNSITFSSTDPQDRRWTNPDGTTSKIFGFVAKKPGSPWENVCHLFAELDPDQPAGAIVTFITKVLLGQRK

SRMS = molecular target: T3, SRMS (Homo sapiens, UniProt Q9H3Y6); conditions: for remaining activity at 10 µM: read-out: percent of DMSO vehicle control; for KD: dose-response
T3 construct: made in house; host or cells: HEK293 (transient transfection), unpurified extract

TNS1 = molecular target: T4, TNS1 (Homo sapiens, UniProt Q9HBL0); conditions: for percent of DMSO vehicle control at 10 µM / remaining activity at 10 µM: read-out: percent of DMSO vehicle control; for remaining activity at 10 µM: primary screen
T4 construct: made in house; host or cells: HEK293 (transient transfection), unpurified extract

YES = molecular target: T5, YES (Homo sapiens, UniProt P07947); conditions: for remaining activity at 10 µM: read-out: percent of DMSO vehicle control
T5 construct: the DNA-tagged SH2 domain concentrations used in this study were <0.1 nM; made in house; host or cells: HEK293 (transient transfection; unpurified cell extract)

NCK2 = molecular target: T6, NCK2 (Homo sapiens, UniProt O43639); conditions: for remaining activity at 10 µM: read-out: percent of DMSO vehicle control
T6 construct: the DNA-tagged SH2 domain concentrations used in this study were <0.1 nM; made in house; host or cells: HEK293 (transient transfection, unpurified extract)
T6 sequence (O43639 285-380 limits assumed): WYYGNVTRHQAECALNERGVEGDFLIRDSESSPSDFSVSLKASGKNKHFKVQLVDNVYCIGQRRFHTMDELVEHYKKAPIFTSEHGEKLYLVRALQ

VAV1 = molecular target: T7, VAV1 (Homo sapiens, UniProt P15498); conditions: for percent of DMSO vehicle control at 10 µM / remaining activity at 10 µM: read-out: percent of DMSO vehicle control; for remaining activity at 10 µM: primary screen
T7 construct: made in house; host or cells: HEK293 (transient transfection), unpurified extract
T7 sequence (P15498 1-845): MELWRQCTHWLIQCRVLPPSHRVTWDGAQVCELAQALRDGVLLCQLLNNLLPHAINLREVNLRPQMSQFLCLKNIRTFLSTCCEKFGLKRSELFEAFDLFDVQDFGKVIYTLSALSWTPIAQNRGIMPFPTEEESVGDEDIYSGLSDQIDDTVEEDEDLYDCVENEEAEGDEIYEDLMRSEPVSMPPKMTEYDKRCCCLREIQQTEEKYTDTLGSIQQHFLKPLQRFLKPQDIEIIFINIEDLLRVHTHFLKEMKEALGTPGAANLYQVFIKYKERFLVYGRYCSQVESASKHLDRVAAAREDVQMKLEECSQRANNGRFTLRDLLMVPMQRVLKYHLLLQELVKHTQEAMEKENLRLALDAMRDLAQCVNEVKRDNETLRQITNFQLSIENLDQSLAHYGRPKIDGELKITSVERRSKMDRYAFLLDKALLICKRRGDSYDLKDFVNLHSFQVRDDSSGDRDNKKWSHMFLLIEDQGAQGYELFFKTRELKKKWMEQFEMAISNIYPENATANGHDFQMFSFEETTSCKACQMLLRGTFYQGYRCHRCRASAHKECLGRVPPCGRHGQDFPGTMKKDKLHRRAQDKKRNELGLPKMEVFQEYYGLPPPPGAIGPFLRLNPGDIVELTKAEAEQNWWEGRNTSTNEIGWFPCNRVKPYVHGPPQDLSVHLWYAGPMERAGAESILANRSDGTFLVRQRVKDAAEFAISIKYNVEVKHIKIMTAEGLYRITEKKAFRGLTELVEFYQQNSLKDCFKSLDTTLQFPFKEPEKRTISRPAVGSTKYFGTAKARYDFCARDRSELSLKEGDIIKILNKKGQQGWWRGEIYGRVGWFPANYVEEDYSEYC

FGR = molecular target: T8, FGR (Homo sapiens, UniProt P09769); conditions: for remaining activity at 10 µM: read-out: percent of DMSO vehicle control
T8 construct: the DNA-tagged SH2 domain concentrations used in this study were <0.1 nM; made in house; host or cells: HEK293 (transient transfection; unpurified extract)

SH2D6 = molecular target: T9, SH2D6 (Homo sapiens, UniProt Q7Z4S9); conditions: for remaining activity at 10 µM: read-out: percent of DMSO vehicle control
T9 construct: made in house; host or cells: HEK293 (transient transfection), unpurified extract
T9 sequence (Q7Z4S9 whole entry): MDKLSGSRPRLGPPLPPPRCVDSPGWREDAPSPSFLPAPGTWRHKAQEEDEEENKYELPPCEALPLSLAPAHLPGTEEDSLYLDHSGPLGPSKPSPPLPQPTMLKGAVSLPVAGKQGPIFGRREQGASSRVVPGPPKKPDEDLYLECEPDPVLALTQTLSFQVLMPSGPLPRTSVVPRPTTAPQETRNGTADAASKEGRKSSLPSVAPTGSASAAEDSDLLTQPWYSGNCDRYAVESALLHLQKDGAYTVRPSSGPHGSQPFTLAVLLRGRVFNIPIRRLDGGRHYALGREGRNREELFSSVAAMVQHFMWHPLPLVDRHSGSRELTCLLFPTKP

T8 sequence (P09769 144-241 limits assumed): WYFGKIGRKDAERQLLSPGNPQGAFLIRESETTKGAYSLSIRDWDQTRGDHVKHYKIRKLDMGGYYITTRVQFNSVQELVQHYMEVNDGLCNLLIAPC
T4 sequence (Q9HBL0 whole entry): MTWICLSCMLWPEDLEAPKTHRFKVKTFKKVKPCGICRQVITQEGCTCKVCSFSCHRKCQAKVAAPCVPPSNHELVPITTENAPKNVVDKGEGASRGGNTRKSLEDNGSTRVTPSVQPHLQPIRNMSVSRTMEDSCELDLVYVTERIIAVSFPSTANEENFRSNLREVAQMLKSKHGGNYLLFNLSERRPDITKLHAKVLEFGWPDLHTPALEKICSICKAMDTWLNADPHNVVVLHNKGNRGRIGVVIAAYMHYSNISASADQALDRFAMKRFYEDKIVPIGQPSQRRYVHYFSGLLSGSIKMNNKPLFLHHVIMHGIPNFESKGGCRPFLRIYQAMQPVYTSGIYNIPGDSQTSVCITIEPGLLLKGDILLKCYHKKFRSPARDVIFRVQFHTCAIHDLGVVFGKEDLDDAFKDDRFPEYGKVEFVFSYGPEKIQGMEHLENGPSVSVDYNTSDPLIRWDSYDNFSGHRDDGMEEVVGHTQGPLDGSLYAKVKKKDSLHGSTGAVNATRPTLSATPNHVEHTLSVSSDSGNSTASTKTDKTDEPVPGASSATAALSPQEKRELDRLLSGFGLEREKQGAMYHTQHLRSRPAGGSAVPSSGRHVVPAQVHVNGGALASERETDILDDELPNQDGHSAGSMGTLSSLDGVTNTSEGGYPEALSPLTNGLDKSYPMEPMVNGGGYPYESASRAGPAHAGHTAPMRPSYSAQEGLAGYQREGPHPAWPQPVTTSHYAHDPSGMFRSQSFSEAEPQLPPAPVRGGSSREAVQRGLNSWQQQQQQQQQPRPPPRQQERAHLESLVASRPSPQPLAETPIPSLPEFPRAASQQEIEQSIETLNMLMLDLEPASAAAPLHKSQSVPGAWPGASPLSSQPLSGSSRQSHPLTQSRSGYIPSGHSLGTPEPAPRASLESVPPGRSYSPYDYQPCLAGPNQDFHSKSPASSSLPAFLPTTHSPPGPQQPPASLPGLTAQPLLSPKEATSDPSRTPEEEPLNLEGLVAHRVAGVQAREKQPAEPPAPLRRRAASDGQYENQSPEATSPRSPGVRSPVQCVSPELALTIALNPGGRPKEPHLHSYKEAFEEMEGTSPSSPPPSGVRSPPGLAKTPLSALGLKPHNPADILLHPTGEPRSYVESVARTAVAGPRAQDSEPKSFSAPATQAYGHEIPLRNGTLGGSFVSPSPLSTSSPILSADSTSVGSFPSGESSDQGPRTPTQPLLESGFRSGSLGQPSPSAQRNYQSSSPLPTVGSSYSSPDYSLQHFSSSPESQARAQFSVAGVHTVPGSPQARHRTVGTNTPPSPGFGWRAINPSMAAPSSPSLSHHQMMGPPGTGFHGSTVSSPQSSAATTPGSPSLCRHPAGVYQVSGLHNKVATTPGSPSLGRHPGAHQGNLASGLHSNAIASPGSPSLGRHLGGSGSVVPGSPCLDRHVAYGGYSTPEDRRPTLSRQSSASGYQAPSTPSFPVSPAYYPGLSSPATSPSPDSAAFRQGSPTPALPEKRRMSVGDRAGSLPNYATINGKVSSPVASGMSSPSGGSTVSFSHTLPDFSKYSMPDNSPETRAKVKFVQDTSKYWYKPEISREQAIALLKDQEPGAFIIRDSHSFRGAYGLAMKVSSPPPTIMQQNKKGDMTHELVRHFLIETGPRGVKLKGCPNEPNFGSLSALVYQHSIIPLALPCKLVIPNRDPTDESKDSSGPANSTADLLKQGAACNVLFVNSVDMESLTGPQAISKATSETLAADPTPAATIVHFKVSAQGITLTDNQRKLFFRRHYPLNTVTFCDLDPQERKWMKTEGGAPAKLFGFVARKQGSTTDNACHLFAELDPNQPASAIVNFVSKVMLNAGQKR
T3 sequence (Q9H3Y6 whole entry): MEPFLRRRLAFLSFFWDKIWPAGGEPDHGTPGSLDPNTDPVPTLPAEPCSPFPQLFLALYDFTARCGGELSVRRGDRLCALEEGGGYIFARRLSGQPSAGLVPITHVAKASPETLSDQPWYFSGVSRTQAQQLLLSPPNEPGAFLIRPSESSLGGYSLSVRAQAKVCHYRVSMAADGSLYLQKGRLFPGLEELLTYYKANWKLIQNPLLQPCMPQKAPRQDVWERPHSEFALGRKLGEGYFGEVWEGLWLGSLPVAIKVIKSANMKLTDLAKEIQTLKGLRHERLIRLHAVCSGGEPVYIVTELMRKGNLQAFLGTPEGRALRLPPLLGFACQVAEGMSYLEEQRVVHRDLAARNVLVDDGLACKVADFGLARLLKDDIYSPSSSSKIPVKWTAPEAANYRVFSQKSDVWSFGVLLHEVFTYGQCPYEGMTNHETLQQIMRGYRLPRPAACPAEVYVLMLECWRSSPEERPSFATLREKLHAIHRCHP
T5 sequence (P07947 158-255 limits assumed): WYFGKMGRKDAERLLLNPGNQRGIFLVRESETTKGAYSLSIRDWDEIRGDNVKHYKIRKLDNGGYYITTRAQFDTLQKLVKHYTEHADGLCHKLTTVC
T1 sequence (P16591 460-550 limits assumed): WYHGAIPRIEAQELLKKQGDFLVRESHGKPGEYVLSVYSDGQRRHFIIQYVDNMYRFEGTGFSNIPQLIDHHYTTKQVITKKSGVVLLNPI

| SMILES | percent of DMSO vehicle control at 10 µM (FER) | Kd (TNS2) | remaining activity at 10 µM (TNS2) | remaining activity at 10 µM (SRMS) | Kd (TNS1) | percent of DMSO vehicle control at 10 µM (TNS1) | remaining activity at 10 µM (YES) | remaining activity at 10 µM (NCK2) | percent of DMSO vehicle control at 10 µM (VAV1) | remaining activity at 10 µM (FGR) | remaining activity at 10 µM (SH2D6) | Kd (FER; dose-response, read-out: KD) | remaining activity at 10 µM (FER) | remaining activity at 10 µM (TNS2; primary screen, 10 μM) | KD (SRMS) | remaining activity at 10 µM (SRMS; primary screen, 10 μM) | remaining activity at 10 µM (TNS1) | remaining activity at 10 µM (YES; primary screen, 10 μM) | remaining activity at 10 µM (NCK2; primary screen, 10 μM) | remaining activity at 10 µM (VAV1) | other results |
| --- | --- | --- | --- | --- | --- | --- | --- | --- | --- | --- | --- | --- | --- | --- | --- | --- | --- | --- | --- | --- | --- |
| CC[C@H](C)[C@H](NC(=O)[C@H](CCC(=O)O)NC(=O)[C@H](CCC(=O)O)NC(=O)[C@H](Cc1ccc(OP(=O)(O)O)cc1)NC(=O)/C=C/c1ccc(O)c(O)c1)C(=O)N[C@@H](CCC(=O)O)C(=O)O [Caffeic acid-pYEEIE] (Caffeoyl-[pY]EEIE-OH) | 0.8 ± 0.8% | 4300 ± 2500 nM | 4.8 ± 1.3% | 0.1% | 3800 ± 610 nM | 25.5 ± 1.1% | 0% | 2.8 ± 3.1% | 1.6 ± 0.6% | 0% | 36.4 ± 4.5% |  |  |  |  |  |  |  |  |  | Kd (FER): 62 ± 86 nM; Kd (SRMS): 1.2 ± 0.73 nM; Kd (YES): 1 ± 0.47 nM; Kd (NCK2): 210 ± 59 nM; Kd (VAV1): 840 ± 530 nM; Kd (FGR): 2.7 ± 5.3 nM; Kd (SH2D6): 14500 ± 2890 nM |
| NC(=O)CC[C@H](NC(=O)[C@@H]1CC[C@@H]2CCN(C(=O)CCCCCC#Cc3cccc4c3CN(C3CCC(=O)NC3=O)C4=O)C[C@H](NC(=O)c3cc4cc(C(F)(F)P(=O)(O)O)ccc4[nH]3)C(=O)N21)C(=O)NC(c1ccccc1)c1ccccc1 (stereo partly drawn) [SD-36] | 74.4 ± 18.6% |  | 65.4 ± 3.3% | 102 ± 1.9% |  | 112.9 ± 1% | 73.3 ± 11.9% | 80 ± 38.4% | 116 ± 3% | 82 ± 28% | 99.6 ± 3.4% |  |  |  |  |  |  |  |  |  |  |
| CC[C@H](C)[C@H](NC(=O)[C@H](CO)NC(=O)[C@H](CC(C)C)NC(=O)[C@H](CCCNC(=N)N)NC(=O)[C@H](CO)NC(=O)[C@H](CS)NC(C)=O)C(=O)N[C@@H](Cc1ccc(OP(=O)(O)O)cc1)C(=O)N[C@@H](CC(=O)O)C(=O)N[C@@H](CC(N)=O)C(=O)N[C@H](C(=O)N1CCC[C@H]1C(=O)NCC(N)=O)C(C)C [Ac-CSRLSIpYDNVPG-NH2] (Ac-CSRLSI[pY]DNVPG-NH2) |  | 466 ± 450 nM |  |  | 1350 ± 530 nM |  |  |  |  |  |  |  |  |  |  |  |  |  |  |  |  |
| CC(C)(C)[C@H](NC(=O)/C=C/c1ccc(OP(=O)(O)O)cc1)C(=O)N1CCC[C@H]1C(=O)N(c1ccccc1)c1ccc(I)cc1 [STAT6-IN-3] |  |  |  |  |  |  |  |  |  |  |  | 8000 ± 8700 nM | 10.7 ± 34% | 86.8 ± 7.1% | No Hit | 8.5 ± 53.2% | 88.4 ± 24.5% | 37.7 ± 27.8% | 102 ± 68.4% | 67.6 ± 32.1% | KD (FGR; dose-response): No Hit; remaining activity at 10 µM (FGR; primary screen, 10 μM): 32.1 ± 40.1%; remaining activity at 10 µM (SH2D6; primary screen, 10 μM): 97.5 ± 15.9% |
| C/C(=C\C(=O)N[C@H](C(=O)N1CCC[C@H]1C(=O)N(c1ccccc1)c1ccc(I)cc1)C(C)(C)C)c1ccc(OP(=O)(O)O)cc1 [STAT6-IN-1] |  |  |  |  |  |  |  |  |  |  |  | 1400 ± 71 nM | 8.5 ± 0.1% | 55.9 ± 0.4% | No Hit | 7.6 ± 0.5% | 87.6 ± 10% | 29.5% | 66.2 ± 8.2% | 55.3 ± 2.6% | Kd (YES; dose-response, read-out: KD): 9200 ± 380 nM; Kd (FGR; dose-response, read-out: KD): 2300 ± 550 nM; remaining activity at 10 µM (FGR; primary screen, 10 μM): 20.7 ± 23.8%; remaining activity at 10 µM (SH2D6; primary screen, 10 μM): 67.5 ± 5.3% |
